One assay addresses trypsin IV (mesotrypsin). The note with it: versus trypsin IV (mesotrypsin); cited from earlier work.
In assay [1] the target is T1, mesotrypsin (Homo sapiens, UniProt P35030).
T1 construct: made in house; host or cells: E. coli
T1 sequence (P35030 81-304 limits assumed): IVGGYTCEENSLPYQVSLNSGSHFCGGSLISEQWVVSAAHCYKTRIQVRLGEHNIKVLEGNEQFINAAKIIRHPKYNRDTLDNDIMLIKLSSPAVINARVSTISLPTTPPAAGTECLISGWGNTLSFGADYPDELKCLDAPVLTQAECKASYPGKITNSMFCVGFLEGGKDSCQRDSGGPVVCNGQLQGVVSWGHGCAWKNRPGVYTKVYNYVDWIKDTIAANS
The assay is described as follows: Competitive inhibition assay with N-Cbz-Gly-Pro-Arg-pNA, mesotrypsin. The format is biochemical. To be noted: for Ki: 0.25 nM enzyme, 37°C, pH 8.0, global fit to competitive inhibition, duplicate independent experiments. The source says: (§1) Recombinant human anionic trypsinogen, human cationic trypsinogen and human mesotrypsinogen were expressed in E. coli, extracted from inclusion bodies, refolded, purified and activated with bovine enteropeptidase as described in previous work.
(§2) Active mesotrypsin was quantified by active site titration as described in [21] using 4-nitrophenyl-4-guanidinobenzoate (NPGB) from Sigma. Concentrations of colorimetric peptide reporter substrate N-Cbz-Gly-Pro-Arg-pNA (Sigma) for the activity and competitive inhibition assay were determined by end point assay. Working stocks for compounds were diluted in dimethylsulfoxide (DMSO) and stored at -20°C. Compounds were assessed for mesotrypsin inhibitory activity in reactions carried out in cuvettes at 37°C in a Varian Cary-100 spectrophotometer. Reactions consisted of 0.25 nM enzyme, 100 μM reporter substrate, 100 mM Tris-HCl pH 8.0, 1 mM CaCl2, and a compound concentration range between 50 nM to 500 μM in the assay. Reactions were followed for approximately three minutes, with the initial rates determined by the linear increase in absorbance resulting from para-nitroaniline production (ε410 = 8480 M^-1 cm^-1). Absorbance versus compound concentration was plotted on a Linear-Log scale to determine IC50.
(§3) The competitive inhibition assay reactions consisted of 0.25 nM enzyme, five reporter substrate concentrations between 10 μM-200 μM, and five inhibitory compound concentrations between 1–30 μM. Reactions were followed for approximately 3 minutes, and the initial rate data were globally fitted using Prism (GraphPad Software, San Diego CA) by non-linear regression based on Eq 1. Results are from duplicate independent experiments.
(§4) V= Kcat[E]o[S]/Km (1+[I]/Ki)+[S] (1)

Assay [2] deals with T2, trypsin 2 (anionic trypsin) (Homo sapiens, UniProt P07478).
T2 construct: made in house; host or cells: E. coli
T2 sequence (P07478 24-247): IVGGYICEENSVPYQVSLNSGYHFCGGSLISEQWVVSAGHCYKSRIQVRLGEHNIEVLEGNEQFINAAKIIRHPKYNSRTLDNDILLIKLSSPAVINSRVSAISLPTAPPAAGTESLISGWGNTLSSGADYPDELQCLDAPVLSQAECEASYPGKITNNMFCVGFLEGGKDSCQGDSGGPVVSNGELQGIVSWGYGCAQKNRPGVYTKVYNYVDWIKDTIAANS
The assay is described as follows: Competitive inhibition assay, anionic trypsin. Format: biochemical. To be noted: human trypsin 2. The protocol: (§5) To assess compound selectivity we determined Ki for the three compounds towards related human trypsin isoforms trypsin 1 (cationic trypsin) and trypsin 2 (anionic trypsin).
as §1, §3, §4

Assay [3] deals with T3, trypsin 1 (cationic trypsin) (Homo sapiens, UniProt P07477).
T3 construct: made in house; host or cells: E. coli
The assay is described as follows: Competitive inhibition assay, cationic trypsin. Format: biochemical. The note with it: human trypsin 1. The protocol:
as §5, §1, §3, §4

For assay [4], the target named is T1, mesotrypsin. The assay is described as follows: Mesotrypsin activity assay (colorimetric, N-Cbz-Gly-Pro-Arg-pNA). The format is biochemical. The note with it: 0.25 nM enzyme, 100 μM substrate, compound 50 nM to 500 μM, 37°C. The protocol:
Compounds were tested by an in vitro activity assay utilizing the colorimetric peptide reporter substrate N-Cbz-Gly-Pro-Arg-pNA. The assay monitors the rate of para-nitroaniline production after substrate cleavage by mesotrypsin.
as §1
as §2, with “Reactions consisted of 0.25 nM enzyme, 100 μM reporter substrate, 100 mM Tris-HCl pH 8.0, 1 mM CaCl2, and a compound concentration range between 50 nM to 500 μM in the assay.” left out

The structures appear in SMILES notation.

As to `N=C(N)c1ccccc1` [Benzamidine], on trypsin IV (mesotrypsin), the Ki is 22 µM.

In the case of `N=C(N)c1ccc(/N=N/Nc2ccc(C(=N)N)cc2)cc1` [Diminazene], the inhibition constant (Ki) on mesotrypsin [1] was found to be 3.66 µM; in assay [2], 2.29 ± 0.21 µM; in assay [3], 3.44 ± 0.41 µM. Moreover, at mesotrypsin [1] (multiple substrate and compound concentrations, Lineweaver-Burk), the inhibition mode result is recorded as “competitive inhibitor”. On mesotrypsin [4], the “inhibitory activity towards mesotrypsin” value was “low micromolar range”.

For `N=C(N)c1ccc(/C=C/c2ccc(C(=N)N)cc2O)cc1` [Hydroxystilbamidine, hydroxystilbamidine], the inhibitory constant (Ki) on mesotrypsin [1] stood at 10.6 µM; in assay [2], 1.7 ± 0.05 µM; in assay [3], 3.35 ± 0.35 µM. Moreover, the “inhibitory activity towards mesotrypsin” value against mesotrypsin [4] is “low micromolar range”.

Turning to `N=C(N)c1ccc(OCCCCCOc2ccc(C(=N)N)cc2)cc1` [Pentamidine, pentamidine], the values for the Ki (on mesotrypsin [1]; in assay [2]; in assay [3]) were 5.1 µM, 1.06 ± 0.01 µM and 3.12 ± 0.6 µM, respectively.

The values above are taken from PMC5413004, “Small molecule inhibitors of mesotrypsin from a structure-based docking screen” (PLoS ONE, 2017).
